Experimental data: patent US7498438B2, “Fused ring NK1 antagonists” (Schering Corporation, priority 2004, dated 2009)

biological target: NK1 receptor (Homo sapiens, UniProt P25103); assay: NK1 receptor binding: inhibition of Substance P binding, Ki by the Chang-Prusoff equation
Source text: The in vitro and in vivo NK1, NK2 and NK3 activities of the compounds of Formula 1 can be determined by various procedures known in the art, such as a test for their ability to inhibit the activity of the NK1 agonist Substance P. The percent inhibition of neurokinin agonist activity is the difference between the percent of maximum specific binding (“MSB”) and 100%. The percent of MSB is defined by the following equation, wherein “dpm” represents “disintegrations per minute”:
[formula] The concentration at which the compound produces 50% inhibition of binding is then used to determine an inhibition constant (“Ki”) using the Chang-Prusoff equation.
The activities (potencies) for the compounds of the invention are determined by measuring their Ki values. […] Even more preferred are compounds having average Ki values of from 0.01 nM to about 10 nM for the NK1 receptor. Especially preferred compounds have NK1 average Ki values of from 0.01 nM to about 3 nM. Even more especially preferred compounds have NK1 average Ki values of from 0.01 nM to about 0.3 nM.

Sequence of NK1 receptor (P25103 whole entry, species assumed): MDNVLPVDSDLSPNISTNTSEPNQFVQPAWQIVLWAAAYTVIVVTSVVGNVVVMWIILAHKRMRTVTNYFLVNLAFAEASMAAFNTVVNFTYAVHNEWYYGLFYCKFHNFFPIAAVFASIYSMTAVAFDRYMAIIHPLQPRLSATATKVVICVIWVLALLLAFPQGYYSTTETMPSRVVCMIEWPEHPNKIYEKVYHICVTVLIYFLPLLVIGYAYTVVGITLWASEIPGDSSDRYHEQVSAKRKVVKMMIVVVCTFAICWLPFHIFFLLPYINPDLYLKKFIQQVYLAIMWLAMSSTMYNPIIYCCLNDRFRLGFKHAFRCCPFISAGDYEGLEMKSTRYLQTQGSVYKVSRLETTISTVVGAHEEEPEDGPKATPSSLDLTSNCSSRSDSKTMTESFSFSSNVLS

| SMILES | Ki |
| --- | --- |
| C[C@@H](OC[C@@]1(c2ccccc2)CCC2OC(=O)NC2N1)c1cc(C(F)(F)F)cc(C(F)(F)F)c1 (single isomer, unassigned) [Compound 4a] | 0.62 nM |
| C[C@@H](OC[C@@]1(c2ccccc2)CC[C@@H]2NC(=O)NCC2N1)c1cc(C(F)(F)F)cc(C(F)(F)F)c1 (some centres unmarked) [Compound 8] | 0.36 nM |
| C[C@@H](OC[C@@]1(c2ccccc2)CC[C@@H]2NC(=O)CC2N1)c1cc(C(F)(F)F)cc(C(F)(F)F)c1 (some centres unmarked) [Compound 5a] | 0.23 nM |
| C[C@@H](OC[C@@]1(c2ccccc2)CCC2OC(=O)NC2N1)c1cc(C(F)(F)F)cc(C(F)(F)F)c1 (single isomer, unassigned) [Compound 4b] | 0.32 nM |
| C[C@@H](OC[C@@]1(c2ccccc2)CC[C@@H]2NC(=O)OCCC2N1)c1cc(C(F)(F)F)cc(C(F)(F)F)c1 (some centres unmarked) [Compound 6a] | 0.14 nM |

Further compounds by falling Ki, results first:

| Ki | SMILES |
| --- | --- |
| 0.3 nM | C[C@@H](OC[C@@]1(c2ccccc2)CC[C@@H]2NC(=O)CCC2N1)c1cc(C(F)(F)F)cc(C(F)(F)F)c1 (some centres unmarked) [Compound 7] |
| 0.28 nM | C[C@@H](OC[C@@]1(c2ccccc2)C[C@H]2OC(=O)NC2CN1)c1cc(C(F)(F)F)cc(C(F)(F)F)c1 (some centres unmarked) [Compound 9a] |
| 0.23 nM | C[C@@H](OC[C@@]1(c2ccccc2)C[C@H]2NC(=O)NC2CN1)c1cc(C(F)(F)F)cc(C(F)(F)F)c1 (some centres unmarked) [Compound 1a] |
